Among the data in ChEMBL document CHEMBL4251586, “Design, synthesis and evaluation of an anthraquinone derivative conjugated to myelin basic protein immunodominant (MBP85-99) epitope: Towards selective immunosuppression” (Eur J Med Chem, 2018) are Activity, IC50 and Drug uptake values, retold here.

One data set deals with Jurkat. Briefly: Induction of apoptosis in human Jurkat T cells assessed as downregulation of Bcl2 expression at 10 uM after 48 hrs by Western blot analysis. Format: functional. (In general: In western blotting, separated proteins are transferred to a membrane and probed.)
In another data set the test system is HEK293. Briefly: Cytotoxicity against HEK293 cells after 48 hrs by MTT assay. It counts as cell-based, Homo sapiens. (Tetrazolium assays rely on reduction of a dye to a coloured formazan, in cell work by metabolically active cells.)
Data set [1] in a line: Drug internalization in HEK293 cells at 10 uM after 30 to 60 mins by inverted fluorescence microscopy. Format: ADME, cell-based. As to conditions: human, hek293, 10 µM; call rule not given here.

Regarding `O=C1c2c(O)ccc(O)c2C(=O)c2c(NCCNCCO)ccc(NCCNCCO)c21` [MITOXANTRONE], the Activity with Jurkat was 50%.

On to `NCCCCNc1ccc(O)c2c1C(=O)c1ccccc1C2=O.O=C(O)C(F)(F)F`, for which the half-maximal inhibitory concentration (IC50) – broadly, the concentration needed to halve the response being measured – in the data set on HEK293 (Homo sapiens, HEK293, 48 h) is 9.4 µM. Also, the Activity entry with HEK293 (human, hek293, 48 h) is reported as “Dose-dependent effect”. In addition, the Drug uptake result in data set [1] is listed as “Active”.

Consider `O=C(CS)NCCCCNc1ccc(O)c2c1C(=O)c1ccccc1C2=O`, for which the Activity with Jurkat came to 40%.
